The C3SDB collision cross section collection
Where “and” joins values, the source holds several entries; their conditions need not be identical. Identical values can stand only once.

Experiments:
[1] = instrument: DT, single field
[2] = [M+NH4]+; instrument: DT; single field, calibrated with Agilent tune mix (Agilent)

CCCCC/C=C\C/C=C\CCCCCCCC(=O)O[C@@H](CO)COC(=O)CCCCCCCCCCCC [DG(31:2)]
collision cross section (N2) ([1]; [M+NH4]+): 249.72 Å²

CCCCCCCC/C=C\CCCCCCCCCC(=O)O[C@@H](CO)COC(=O)CCCCCCCCCCC [DG(32:1)]
collision cross section (N2) ([1]; [M+NH4]+): 255.8 Å²

CCCC/C=C\C/C=C\CCCCCCCC(=O)O[C@@H](CO)COC(=O)CCCCCCCCCCCCCCCC [DG(34:2)]
collision cross section (N2) [2]: 257.9 Å²
collision cross section (N2) ([1]; [M+NH4]+): 257.59 Å² and 259.54 Å²

CCCCC/C=C\C/C=C\C/C=C\CCCCCCCCC(=O)O[C@@H](CO)COC(=O)CCCCCCCCCCCCC [DG(36:3)]
collision cross section (N2) ([1]; [M+NH4]+): 261.08 Å²

CCCCC/C=C\C/C=C\C/C=C\CCCCC(=O)OC[C@H](CO)OC(=O)CCCCCCC/C=C\CCCCCCCC [DG(36:4)]
collision cross section (N2) ([1]; [M+NH4]+): 257.21 Å²

CCCC/C=C\CCCCCCCC(=O)OC[C@H](CO)OC(=O)CCCCC/C=C\C/C=C\C/C=C\C/C=C\CCCCC [DG(36:5)]
collision cross section (N2) ([1]; [M+NH4]+): 254.91 Å²

CCCCC/C=C\C/C=C\C/C=C\C/C=C\CCCC(=O)O[C@@H](CO)COC(=O)CCCC/C=C\C/C=C\C/C=C\CCCCC [DG(38:7)]
collision cross section (N2) ([1]; [M+NH4]+): 259.31 Å²

CC/C=C\C/C=C\C/C=C\C/C=C\C/C=C\CCCCCC(=O)O[C@@H](CO)COC(=O)CCCC/C=C\C/C=C\C/C=C\CCCCC [DG(40:8)]
collision cross section (N2) ([1]; [M+NH4]+): 266.74 Å²

CCCCCCCCCCCCC=CCC=CCC=CCC=CCC(=O)N[C@@H](COP(=O)([O-])OCC[N+](C)(C)C)[C@H](O)CC=CCCCCCCCCCCCC [SM(43:5)]
collision cross section (N2) ([1]; [M+H]+): 301.97 Å²

CCCCCC/C=C\CCCCCCCC(=O)OC[C@@H](COC(=O)CCCCCCCCCCC)OC(=O)CCCCCCCCCCC [TG(40:1)]
collision cross section (N2) ([1]; [M+NH4]+): 282.64 Å² and 284.9 Å²
collision cross section (N2) ([1]; [M+Na]+): 280.45 Å² and 283.77 Å²

CCCCCCCC/C=C\CCCCCCCC(=O)OC[C@@H](COC(=O)CCCCCCCCCCC)OC(=O)CCCCCCCCCCC [TG(42:1)]
collision cross section (N2) [2]: 288.5 Å²
collision cross section (N2) ([1]; [M+NH4]+): 289.72 Å² and 292.07 Å² and 292.03 Å²
collision cross section (N2) ([1]; [M+Na]+): 288.53 Å² and 291.03 Å²

CCCCCCCCCC/C=C\CCCCCCCCCC(=O)OC[C@@H](COC(=O)CCCCCCCCCCC)OC(=O)CCCCCCCCCCC [TG(46:1)]
collision cross section (N2) ([1]; [M+Na]+): 302.27 Å² and 304.44 Å²

CCCCCCC/C=C\CCCCCCCC(=O)OC[C@@H](COC(=O)CCCCCCCCCCC)OC(=O)CCCCCCC/C=C\CCCCCCC [TG(46:2)]
collision cross section (N2) [2]: 300.4 Å²
collision cross section (N2) ([1]; [M+NH4]+): 300.67 Å² and 303.01 Å²
collision cross section (N2) ([1]; [M+Na]+): 299.74 Å² and 302.02 Å²

CCCCCCCCCC/C=C\CCCCCCCCCC(=O)OC[C@@H](COC(=O)CCCCCCCCCCCC)OC(=O)CCCCCCCCCCCC [TG(48:1)]
collision cross section (N2) [2]: 310.9 Å²
collision cross section (N2) ([1]; [M+Na]+): 308.88 Å² and 310.77 Å²

CCCCC/C=C\CCCCCCCC(=O)OC[C@H](COC(=O)CCCCCCC/C=C\CCCCCCCCC)OC(=O)CCCCCCC/C=C\CCCCC [TG(49:3)]
collision cross section (N2) [2]: 307.8 Å²
collision cross section (N2) ([1]; [M+NH4]+): 308.33 Å² and 309.79 Å² and 313.23 Å²
collision cross section (N2) ([1]; [M+Na]+): 308.93 Å²

CCCCCCCCCC/C=C\CCCCCCCCCC(=O)OC[C@@H](COC(=O)CCCCCCCCCCCCC)OC(=O)CCCCCCCCCCCCC [TG(50:1)]
collision cross section (N2) ([1]; [M+Na]+): 315.05 Å² and 316.8 Å²

CCCCCCCCC/C=C\CCCCCCCC(=O)OC[C@@H](COC(=O)CCCCCCCCCCCCCCC)OC(=O)CCCCCCCCCCCCCCC [TG(51:1)]
collision cross section (N2) ([1]; [M+Na]+): 317.97 Å² and 320.06 Å²

CCCCCCCCCCCCCCCCCCCC(=O)OC[C@@H](COC(=O)CCCCCCCCCCC)OC(=O)CCCCCCCCCCCCCCCCCCC [TG(52:0)]
collision cross section (N2) [2]: 323.4 Å²
collision cross section (N2) ([1]; [M+NH4]+): 323.2 Å² and 325.31 Å²
collision cross section (N2) ([1]; [M+Na]+): 323.38 Å²

CCCC/C=C\CCCCCCCC(=O)OC[C@H](COC(=O)CCCCCCC/C=C\CCCCCCCCC)OC(=O)CCCCCCC/C=C\CCCCCCCCC [TG(52:3)]
collision cross section (N2) [2]: 320.2 Å²
collision cross section (N2) ([1]; [M+NH4]+): 318.16 Å² and 320.59 Å² and 322.8 Å²
collision cross section (N2) ([1]; [M+Na]+): 317.01 Å² and 319.26 Å²

CCCCCCCC/C=C\CCCCCCCCCC(=O)OC[C@@H](COC(=O)CCCCCCCCCCCC)OC(=O)CCCCCCCCC/C=C\CCCCCCCC [TG(53:2)]
collision cross section (N2) [2]: 323.6 Å²
collision cross section (N2) ([1]; [M+Na]+): 321.52 Å² and 323.87 Å²

CCCCC/C=C\CCCCCCCC(=O)OC[C@H](COC(=O)CCCCCCC/C=C\CCCCCCCCC)OC(=O)CCCCCCC/C=C\CCCCCCCCC [TG(53:3)]
collision cross section (N2) ([1]; [M+Na]+): 319.33 Å² and 321.38 Å²

CCCCC/C=C\C/C=C\C/C=C\C/C=C\CCCCCC(=O)OC[C@@H](COC(=O)CCCCCCCCCCCCC)OC(=O)CCCCCCC/C=C\CCCCCCC [TG(53:5)]
collision cross section (N2) [2]: 317.4 Å²
collision cross section (N2) ([1]; [M+NH4]+): 317.8 Å² and 320.46 Å² and 322.68 Å²

CCCC/C=C\CCCCCCCC(=O)OC[C@H](COC(=O)CCCCCCCCCCCCCCCCCCC)OC(=O)CCCCCCCCCCCCCCCCCCC [TG(54:1)]
collision cross section (N2) [2]: 328.4 Å²
collision cross section (N2) ([1]; [M+Na]+): 325.86 Å² and 328.61 Å²

CCCC/C=C\CCCCCCCC(=O)OC[C@H](COC(=O)CCCCCCCCC/C=C\CCCCCCCC)OC(=O)CCCCCCCCC/C=C\CCCCCCCC [TG(54:3)]
collision cross section (N2) [2]: 326.5 Å²
collision cross section (N2) ([1]; [M+NH4]+): 324.13 Å² and 326.41 Å² and 329.85 Å²
collision cross section (N2) ([1]; [M+Na]+): 322.77 Å² and 324.86 Å²

CC/C=C\C/C=C\C/C=C\C/C=C\CCCCC(=O)O[C@H](COC(=O)CCCCCCC/C=C\CCCCCCC)COC(=O)CCCCCCC/C=C\CCCCCCCCC [TG(54:6)]
collision cross section (N2) [2]: 319.9 Å²
collision cross section (N2) ([1]; [M+Na]+): 316.05 Å² and 318.28 Å²

CCCCC/C=C\CCCCCCCC(=O)OC[C@H](COC(=O)CCCCCCCCCCCCCCCCCCC)OC(=O)CCCCCCCCCCCCCCCCCCC [TG(55:1)]
collision cross section (N2) ([1]; [M+NH4]+): 334.9 Å² and 337.31 Å² and 332.94 Å²

CCCCC/C=C\CCCCCCCC(=O)OC[C@H](COC(=O)CCCCCCCCC/C=C\CCCCCCCC)OC(=O)CCCCCCCCC/C=C\CCCCCCCC [TG(55:3)]
collision cross section (N2) [2]: 327.5 Å²
collision cross section (N2) ([1]; [M+NH4]+): 330.49 Å² and 333.23 Å² and 328.28 Å²

CCCCC/C=C\C/C=C\C/C=C\C/C=C\CCCCCC(=O)OC[C@@H](COC(=O)CCCCCCCCCCC)OC(=O)CCCCCCCCCCCCCCCCCCCC [TG(55:4)]
collision cross section (N2) [2]: 326 Å²
collision cross section (N2) ([1]; [M+NH4]+): 328.36 Å² and 330.81 Å² and 326.47 Å²

CCCCCCCCCC/C=C\CCCCCCCCCC(=O)OC[C@@H](COC(=O)CCCCCCCCCCC)OC(=O)CCCCCCCCC/C=C\CCCCCCCCCC [TG(56:2)]
collision cross section (N2) [2]: 332.8 Å²
collision cross section (N2) ([1]; [M+Na]+): 332.96 Å²

CC/C=C\C/C=C\C/C=C\C/C=C\C/C=C\CCCC(=O)OC[C@@H](COC(=O)CCCCCCCCCCCCCCCCC)OC(=O)CCCC/C=C\C/C=C\C/C=C\CCCCC [TG(56:8)]
collision cross section (N2) [2]: 325.6 Å²
collision cross section (N2) ([1]; [M+NH4]+): 323.28 Å² and 324.75 Å²

CC/C=C\C/C=C\C/C=C\CCCCCCCC(=O)O[C@@H](COC(=O)CCC/C=C\C/C=C\C/C=C\C/C=C\CCCCC)COC(=O)CCCCCCC/C=C\C/C=C\CCCCC [TG(56:9)]
collision cross section (N2) ([1]; [M+NH4]+): 321.77 Å²

CCCCCCCCC/C=C\CCCCCCCC(=O)OC[C@@H](COC(=O)CCCCCCCCCCCCCCCCCC)OC(=O)CCCCCCCCCCCCCCCCCC [TG(57:1)]
collision cross section (N2) ([1]; [M+NH4]+): 340.07 Å² and 342.55 Å²

CCCC/C=C\CCCCCCCC(=O)OC[C@H](COC(=O)CCCCCCCCCCCCCCCCCCCCC)OC(=O)CCCCCCCCCCCCCCCCCCCCC [TG(58:1)]
collision cross section (N2) ([1]; [M+NH4]+): 342.62 Å² and 345.63 Å² and 341.8 Å²

CCCCC/C=C\C/C=C\C/C=C\CCCCCCC(=O)O[C@H](COC(=O)CCCCCCCCCCCCCCC)COC(=O)CCCCCCCCCCCCCCCCCCCCC [TG(58:3)]
collision cross section (N2) [2]: 336.8 Å²
collision cross section (N2) ([1]; [M+NH4]+): 339.23 Å² and 342.34 Å² and 337.3 Å²

CCCCC/C=C\C/C=C\C/C=C\CCCCCCCCC(=O)OC[C@@H](COC(=O)CCCCCCC/C=C\CCCCCCC)OC(=O)CCCCCCCCCCCCCCCCCC [TG(58:4)]
collision cross section (N2) [2]: 336.6 Å²
collision cross section (N2) ([1]; [M+NH4]+): 340.43 Å² and 336.2 Å²

CC/C=C\C/C=C\C/C=C\C/C=C\C/C=C\CCCCCC(=O)OC[C@@H](COC(=O)CCCCCCC/C=C\CCCCCC)OC(=O)CCCCCC/C=C\C/C=C\C/C=C\CCCCC [TG(58:9)]
collision cross section (N2) [2]: 330 Å²
collision cross section (N2) ([1]; [M+NH4]+): 328.42 Å² and 327.73 Å²
collision cross section (N2) ([1]; [M+Na]+): 329.2 Å²

CC/C=C\C/C=C\C/C=C\C/C=C\C/C=C\CCCCCC(=O)OC[C@@H](COC(=O)CCCCCCCCCCCCCCC)OC(=O)CCC/C=C\C/C=C\C/C=C\C/C=C\C/C=C\CC [TG(58:10)]
collision cross section (N2) [2]: 327.2 Å²
collision cross section (N2) ([1]; [M+NH4]+): 327.44 Å²

CCCCC/C=C\C/C=C\C/C=C\CCCCCCCCC(=O)OC[C@@H](COC(=O)CCCCCCCCCCCCCCCCC)OC(=O)CCCCCCC/C=C\CCCCCCCCC [TG(59:4)]
collision cross section (N2) ([1]; [M+NH4]+): 340.53 Å² and 343 Å²

CCCCC/C=C\C/C=C\C/C=C\C/C=C\CCCC(=O)O[C@@H](COC(=O)CCCCCCCCCCC/C=C\C/C=C\CCCCC)COC(=O)CCCCCCCCCCCCCCCC [TG(59:6)]
collision cross section (N2) ([1]; [M+NH4]+): 339.13 Å²
